Data reported in DBAASP.
In brackets after ≈: the same amount, converted by molar mass. Several values for one entry are separate records, joined by “and”; a condition that tells them apart may be missing. Equal entries are not always repeated. Each block holds one compound with its values, some of them ahead of it.

Legend:
Assay in all cases: ≥ marks a high value that may be exact or a test limit, other limits are often not marked, values filed in µg/mL are converted to µM
[1] = tested on: Klebsiella pneumoniae ATCC 700603
[2] = tested on: Escherichia coli ATCC 25726
[3] = tested on: Candida albicans ATCC 90028
[4] = tested on: Pseudomonas aeruginosa ATCC 27853
[5] = tested on: Acinetobacter baumannii I NM8
[6] = tested on: Staphylococcus aureus ATCC 25923
[7] = tested on: Staphylococcus aureus ATCC 29213
[8] = tested on: Pseudomonas aeruginosa AB93066
Escherichia coli AB94012 = tested on: Escherichia coli AB94012
[9] = tested on: Staphylococcus aureus AB94004
[10] = tested on: Staphylococcus aureus P1369
[11] = tested on: Micrococcus luteus AB93113
[12] = tested on: Escherichia coli ATCC 25922
[13] = tested on: Staphylococcus aureus P1386
[14] = tested on: Staphylococcus aureus P1374
Candida albicans AY93025 = tested on: Candida albicans AY93025
[15] = tested on: Escherichia coli ATCC 35218
[16] = tested on: Enterococcus faecalis ATCC 29212
[17] = tested on: Acinetobacter baumannii ATCC 19606
Acinetobacter baumannii = tested on: Acinetobacter baumannii
[18] = tested on: Bacillus thuringiensis AB92037
[19] = tested on: Staphylococcus epidermidis P1389
[20] = tested on: Bacillus subtilis AB91021
Escherichia coli = tested on: Escherichia coli
Bacillus anthracis = tested on: Bacillus anthracis
Bacillus cereus = tested on: Bacillus cereus
Staphylococcus aureus = tested on: Staphylococcus aureus
[21] = tested on: Enterobacter cloacae 06-267
[22] = tested on: Candida parapsilosis ATCC 22019
[23] = tested on: Enterobacter cloacae 14-262
Escherichia coli 5509 = tested on: Escherichia coli 5509
[24] = tested on: Candida tropicalis ATCC 750
[25] = tested on: Cryptococcus neoformans var. grubii H99
Escherichia coli 09-280 = tested on: Escherichia coli 09-280
[26] = tested on: Klebsiella pneumoniae 01-252
[27] = tested on: Pseudomonas aeruginosa ATCC 9027
[28] = tested on: Cryptococcus neoformans var. neoformans B3501
[29] = tested on: Klebsiella pneumoniae 01-239
Candida albicans SC5314 = tested on: Candida albicans SC5314
Escherichia coli 170 = tested on: Escherichia coli 170
Escherichia coli 09-240 = tested on: Escherichia coli 09-240
[30] = tested on: Acinetobacter baumannii 5821
[31] = tested on: Pseudomonas aeruginosa 5106
[32] = tested on: Pseudomonas aeruginosa 3599
[33] = tested on: Candida glabrata ATCC 90030
[34] = tested on: Staphylococcus aureus 06-051
[35] = tested on: Staphylococcus aureus 01-001
[36] = tested on: Candida albicans ATCC 20032
[37] = tested on: Bacillus subtilis ATCC 6633
[38] = tested on: Staphylococcus aureus ATCC 43300
[39] = tested on: Pseudomonas aeruginosa 08031014
[40] = tested on: Pseudomonas aeruginosa PAO1
Escherichia coli ML-35p = tested on: Escherichia coli ML-35p

SMILES: CC[C@H](C)[C@H](NC(=O)[C@H](CC(C)C)NC(=O)[C@H](Cc1cnc[nH]1)NC(=O)[C@@H]1CCCN1C(=O)[C@H](CC(C)C)NC(=O)[C@@H](NC(=O)[C@H](CCCCN)NC(=O)[C@H](C)NC(=O)[C@@H](NC(=O)CNC(=O)[C@H](CCCCN)NC(=O)[C@H](CC(C)C)NC(=O)CNC(=O)[C@H](CC(C)C)NC(=O)[C@H](CCCCN)NC(=O)[C@H](CC(C)C)NC(=O)[C@H](CC(C)C)NC(=O)[C@@H]1CCCN1C(=O)CNC(=O)[C@H](CC(C)C)NC(=O)[C@H](Cc1ccccc1)NC(=O)CN)C(C)C)C(C)C)C(=O)N1CCC[C@H]1C(=O)N[C@@H](CO)C(=O)N[C@@H](CCCN=C(N)N)C(=O)N[C@@H](CCC(N)=O)C(=O)N[C@@H](CCC(N)=O)C(=O)O [GFLGPLLKLGLKGVAKVLPHLIPSRQQ]
MIC [1]: 25 µM (≈ 72 µg/mL) | MIC [2]: 25 µM (≈ 72 µg/mL) | MIC [3]: 25 µM (≈ 72 µg/mL) | MIC [4]: 6 µM (≈ 17.3 µg/mL) | MIC [5]: 12.5 µM (≈ 36 µg/mL) | MIC [6]: 6 µM (≈ 17.3 µg/mL)

SMILES: CC[C@H](C)[C@H](NC(=O)[C@H](Cc1ccccc1)NC(=O)[C@@H](NC(=O)[C@@H](N)CCCCN)C(C)C)C(=O)N[C@@H](C)C(=O)N[C@H](C(=O)N[C@@H](CC(C)C)C(=O)N[C@H](C(=O)N[C@H](C(=O)N[C@@H](CO)C(=O)N[C@@H](CO)C(=O)N[C@@H](Cc1ccccc1)C(=O)N[C@@H](CC(C)C)C(=O)N[C@@H](CC(C)C)C(=O)N[C@@H](C)C(=O)N[C@@H](CCCCN)C(=O)N1CCC[C@H]1C(=O)N1CCC[C@H]1C(=O)N[C@@H](CCCN=C(N)N)C(=O)N[C@H](C(=O)O)C(C)C)C(C)C)C(C)C)[C@@H](C)O [KVFIATLVVSSFLLAKPPRV]
MIC (Escherichia coli): > 117 µM | MIC (Bacillus anthracis): ≥ 117 µM | MIC (Bacillus cereus): ≥ 117 µM | MIC (Staphylococcus aureus): > 117 µM

SMILES: CC[C@H](C)[C@H](N)C(=O)N[C@@H](CC(C)C)C(=O)N[C@@H](CO)C(=O)N[C@@H](C)C(=O)N[C@H](C(=O)N[C@@H](Cc1c[nH]c2ccccc12)C(=O)N[C@@H](CO)C(=O)NCC(=O)N[C@H](C(=O)N[C@@H](CCCCN)C(=O)N[C@@H](CO)C(=O)N[C@@H](CC(C)C)C(=O)N[C@@H](Cc1ccccc1)C(N)=O)[C@@H](C)CC)[C@@H](C)CC [ILSAIWSGIKSLF]
MIC [7]: 8 µM (≈ 11.5 µg/mL) | MIC [21]: ≥ 32 µM | MIC [22]: ≥ 400 µM | MIC [23]: ≥ 32 µM | MIC (Escherichia coli 5509): ≥ 32 µM | MIC [12]: 15 µM (≈ 21.5 µg/mL) | MIC [24]: 25 µM (≈ 35.8 µg/mL) | MIC [25]: 25 µM (≈ 35.8 µg/mL) | MIC (Escherichia coli 09-280): ≥ 32 µM | MIC [26]: ≥ 32 µM | MIC [27]: 6 µM (≈ 8.6 µg/mL) | MIC [4]: > 32 µM | MIC [28]: 12.5 µM (≈ 17.9 µg/mL) | MIC [29]: 30 µM (≈ 43 µg/mL) | MIC (Candida albicans SC5314): 25 µM (≈ 35.8 µg/mL) | MIC (Escherichia coli 170): ≥ 32 µM | MIC (Escherichia coli 09-240): 30 µM (≈ 43 µg/mL) | MIC [6]: 10 µM (≈ 14.3 µg/mL) | MIC [30]: 10 µM (≈ 14.3 µg/mL) | MIC [31]: ≥ 32 µM | MIC [32]: ≥ 32 µM | MIC [33]: ≥ 400 µM | MIC [34]: 4 µM (≈ 5.74 µg/mL) | MIC [35]: 4 µM (≈ 5.74 µg/mL)

The next lines start with the values.

MIC [7]: 7.94 µM (≈ 16 µg/mL) | MIC [8]: ≥ 49.6 µM | MIC [1]: > 31.8 µM | MIC (Escherichia coli AB94012): ≥ 49.6 µM | MIC [9]: 2.48 µM (≈ 5 µg/mL) | MIC [10]: 4.96 µM (≈ 10 µg/mL) | MIC [11]: 2.48 µM (≈ 5 µg/mL) | MIC [12]: 31.8 µM (≈ 64 µg/mL) | MIC [13]: 4.96 µM (≈ 10 µg/mL) | MIC [14]: 4.96 µM (≈ 10 µg/mL) | MIC (Candida albicans AY93025): 9.93 µM (≈ 20 µg/mL) | MIC [4]: > 31.8 µM | MIC [15]: 31.8 µM (≈ 64 µg/mL) | MIC [16]: 31.8 µM (≈ 64 µg/mL) | MIC [17]: 9.93 µM and 7.94 µM | MIC [6]: 15.9 µM (≈ 32 µg/mL) | MIC (Acinetobacter baumannii): 14.4 µM (≈ 29.1 µg/mL) | MIC [18]: 4.96 µM (≈ 10 µg/mL) | MIC [19]: 4.96 µM (≈ 10 µg/mL) | MIC [20]: 4.96 µM (≈ 10 µg/mL)
SMILES: CC[C@H](C)[C@H](NC(=O)[C@H](C)NC(=O)CNC(=O)[C@@H]1CCCN1C(=O)[C@@H](NC(=O)[C@H](CC(C)C)NC(=O)CNC(=O)[C@H](Cc1c[nH]c2ccccc12)NC(=O)[C@H](CC(C)C)NC(=O)[C@@H](N)Cc1ccccc1)[C@@H](C)CC)C(=O)N[C@@H](CO)C(=O)N[C@@H](C)C(=O)N[C@H](C(=O)N[C@H](C(=O)N[C@@H](CO)C(=O)N[C@@H](CC(C)C)C(=O)N[C@H](C(=O)N[C@@H](CCCCN)C(=O)N[C@@H](CCCCN)C(N)=O)[C@@H](C)CC)[C@@H](C)O)C(C)C [FLWGLIPGAISAVTSLIKK]

MIC [36]: 8.48 µM (≈ 18.8 µg/mL) | MIC (Escherichia coli): 24 µM (≈ 53 µg/mL) | MIC [37]: ≥ 45.3 µM | MIC [38]: 4.24 µM (≈ 9.38 µg/mL) | MIC [12]: 17 µM (≈ 37.5 µg/mL) | MIC [4]: 8.48 µM (≈ 18.8 µg/mL) | MIC [39]: 17 µM (≈ 37.5 µg/mL) | MIC [6]: 4.24 µM (≈ 9.38 µg/mL) | MIC [40]: 4.24 µM (≈ 9.38 µg/mL) | MIC (Escherichia coli ML-35p): 17 µM (≈ 37.5 µg/mL)
SMILES: CC[C@H](C)[C@H](NC(=O)[C@H](CCCCN)NC(=O)[C@@H](NC(=O)[C@H](Cc1c[nH]c2ccccc12)NC(=O)[C@H](CS)NC(=O)[C@H](CCCNC(=N)N)NC(=O)[C@@H]1CCCN1C(=O)[C@@H](N)CCCNC(=N)N)[C@@H](C)CC)C(=O)N[C@@H](CCCCN)C(=O)N[C@@H](Cc1ccccc1)C(=O)N[C@@H](CCCNC(=N)N)C(=O)N[C@@H](CS)C(=O)N[C@@H](CCCCN)C(=O)N[C@@H](CO)C(=O)N[C@@H](CC(C)C)C(=O)N[C@@H](CCCCN)C(=O)N[C@@H](Cc1ccccc1)C(=O)O [RPRCWIKIKFRCKSLKF]
